Experimental data reported in patent US20180188266A1, “Characterization of Type 1 Collagen Synthesis By Fluorescence Imaging and Related Drug Screening Technique” (Florida State University Research Foundation, Inc., priority 2017, published 2018).

System: Type 1 collagen synthesis
Experiment: Confocal fluorescence imaging of Type 1 collagen synthesis in cells expressing COLa1(I)/mTagBFP2 + WT COLa2(I)/mEmerald
Type: cell-based
Details: fixed human lung fibroblasts expressing COLa1(I)/mTagBFP2+WT COLa2(I)/mEmerald; treated for 24 hours vs untreated cell
Method: Three combinations of adenoviruses were used: • COLα1(I)/mTagBFP2 and WT COLα2(I)/mEmerald: images normal, regulated Type 1 collagen synthesis; • COLα1(I)/mTagBFP2 and MUT COLα2(I)/mEmerald: images collagen synthesis without regulation; and • COLα1(I)/mTagBFP2 and COLα2(I)/mEmeraldΔC: images absence of productive synthesis.
Adenoviruses were mixed in a ratio determined by the viral titer and added to human lung fibroblasts in culture. After 48 hours the cells were either fixed in 3.7% formalin, mounted on glass slides and imaged or they were directly imaged as live cells.
Confocal imaging of cells was performed either by Zeiss LSM 880 confocal microscope or Nikon Eclipse Ti laser spin disk confocal microscope in blue and green channels.
The drug used in the confocal microscopy imaging experiments was compound 60D17 of U.S. Pat. No. 8,729,090, which is incorporated by reference. Compound 60D17 has the following formula.

For COC(=O)CNC(=O)c1cc2c(=O)n3cccc(C)c3nc2n1C [compound 60D17], the “Effect on Type 1 collagen biosynthesis (confocal images, FIG. 4)” value was “perturbed”.
